The source of these data is patent US8822455B2, “Fused aminodihydrothiazine derivatives” (Eisai R&D Management Co., Ltd., priority 2011, dated 2014).

Molecules are shown by their SMILES.

This assay relates to Aβ42. In words: In vitro cellular assay (Aβ42): quantification of Aβ peptide in culture of neurons from rat fetus brain (ELISA). The assay is classed as cell-based. To be noted: Primary cortical neuron, 72 h, rat primary cortical neurons (embryonic day 18 Wistar), 3 days after addition of compound, read-out: Cell IC50. As for the experimental part: In vitro Cellular Assay (Aβ42):
Quantification of AβPeptide in Culture of Neurons from Rat Fetus Brain
(1) Rat Primary Neuronal Culture
Primary neuronal cultures were prepared from the cerebral cortex of embryonic day 18 Wistar rats (Charles River, UK). Specifically, the embryos were aseptically removed from pregnant rats under ether anesthesia. The brain was isolated from the embryo and immersed in HBSS (Sigma Aldrich #H9269) containing 10 mM HEPES (Gibco #15630-056). The cerebral cortex was collected from the isolated brain under a stereoscopic microscope. The cerebral cortex fragments collected were enzymatically treated in an enzyme solution containing 0.05% trypsin-EDTA solution (GIBCO, #25300) at 37° C. for 20 minutes to disperse the cells. The cells were then washed twice and then gently resuspended in Neurobasal medium (Gibco #21103) supplemented with 2% B27 supplement (GIBCO #17504-044), 0.5 mM L-glutamine (GIBCO #25030), 1×N2 (GIBCO #17502-048), 100 ug/ml Pen/Strep (GIBCO 15140-122) and 5% heat inactivated FCS (PAA #A15-701). The cell dispersion was filtered through a 40-μm nylon mesh (BD Falcon #352340) to remove the remaining cell mass, and thus a neuronal cell suspension was obtained. The neuronal cell suspension was diluted with the medium above and then plated in a volume of 100 μL/well at an initial cell density of 3.25×10^5 cells/ml in poly-D-lysine coated 96-well culture plate (Greiner #655940). The plated cells were cultured in the culture plate at 37° C. in 5% CO2-95% air for 24 hrs. The total amount of the medium was replaced with ‘assay Neurobasal medium’ (as above excluding heat inactivated FCS), and then the cells were cultured for a further five days.
The drug was added to the culture plate on Day 6 of culture as follows. 8 point compound serial dilutions were generated in DMSO at a concentration of ×1000 that of the final assay concentration (FAC). Compound solutions were then prepared by adding 999 ul of ‘Assay Neurobasal media’ (as described in above section) to 1 ul of DMSO compound stock. The total amount of the medium was removed from each of the cell plate wells, and 200 μL/well of compound solution was added. The final DMSO concentration was 0.1%.
The cells were cultured for either 1 or 3 days after addition of the compound for ABx-40 and ABx-42 assays respectively. 150 μl of sample medium was collected and used as the ELISA sample.
Human/Rat β Amyloid (42) ELISA Kit Wako (#290-62601) and Human/Rat β Amyloid (40) ELISA Kit Wako (#294-62501) from Wako Pure Chemical Industries, Ltd. were used for Aβ ELISA Aβ ELISA was carried out according to the protocols recommended by the manufacturers, described in the documents accompanying the kits. The results were shown as percentage of the control groups and IC50 values for each compound were determined using four parameter logistic fit model using the XLFIT5 software package (IDBS).

In the case of `C[C@H]1OC[C@]2(c3cc(-c4cncnc4)c(F)cc3F)N=C(N)SC[C@H]12` (relative stereo) [Example 31, (4aS*,5R*,7aS*)-7a-(2,4-Difluoro-5-(pyrimidin-5-yl)phenyl)-5-methyl-4a,5,7,7a-tetrahydro-4H-furo[3,4-d][1,3]thiazin-2-amine], the IC50 stood at 0.02 µM. For `C[C@H]1OC[C@]2(c3cc(-c4cncnc4)ccc3F)N=C(N)SC[C@H]12` [Example 1, (4aS,5R,7aS)-7a-(2-Fluoro-5-(pyrimidin-5-yl)phenyl)-5-methyl-4a,5,7,7a-tetrahydro-4H-furo[3,4-d][1,3]thiazin-2-amine], the IC50 is 0.065 µM.

For `C[C@H]1OC[C@]2(c3cc(-c4ncc[nH]4)ccc3F)N=C(N)SC[C@H]12` [Example 2, (4aS,5R,7aS)-7a-(2-Fluoro-5-(1H-imidazo-2-yl)phenyl)-5-methyl-4a,5,7,7a-tetrahydro-4H-furo[3,4-d][1,3]thiazin-2-amine], the IC50 was determined as 0.749 µM. The result for `C[C@H]1OC[C@]2(c3cc(-c4cnc(-c5cnccn5)[nH]4)ccc3F)N=C(N)SC[C@H]12` [Example 3, (4aS,5R,7aS)-7a-(2-fluoro-5-(2-(pyrazin-2-yl)-1H-imidazol-5-yl)phenyl)-5-methyl-4a,5,7,7a-tetrahydro-4H-furo[3,4-d][1,3]thiazin-2-amine] reads 0.069 µM; that for `C[C@H]1OC[C@]2(c3cc(-c4cccnc4)ccc3F)N=C(N)SC[C@H]12` [Example 4, (4aS,5R,7aS)-7a-(2-Fluoro-5-(pyridin-3-yl)phenyl)-5-methyl-4a,5,7,7a-tetrahydro-4H-furo[3,4-d][1,3]thiazin-2-amine], 0.106 µM; that for `C[C@H]1OC[C@]2(c3cc(-c4ccccc4)ccc3F)N=C(N)SC[C@H]12` [Example 5, (4aS,5R,7aS)-7a-(4-Fluoro-[1,1′-biphenyl]-3-yl)-5-methyl-4a,5,7,7a-tetrahydro-4H-furo[3,4-d][1,3]thiazin-2-amine], 0.45 µM. As to `C[C@H]1OC[C@]2(c3cc(-c4ccccc4F)ccc3F)N=C(N)SC[C@H]12` [Example 6, (4aS,5R,7aS)-7a-(2′,4-difluoro-[1,1′-biphenyl]-3-yl)-5-methyl-4a,5,7,7a-tetrahydro-4H-furo[3,4-d][1,3]thiazin-2-amine], the concentration for half-maximal inhibition (IC50) came to 0.244 µM.

For `C[C@H]1OC[C@]2(c3cc(-c4cccnc4F)ccc3F)N=C(N)SC[C@H]12` [Example 7, (4aS,5R,7aS)-7a-(2-Fluoro-5-(2-fluoropyridin-3-yl)phenyl)-5-methyl-4a,5,7,7a-tetrahydro-4H-furo[3,4-d][1,3]thiazin-2-amine], the IC50 came out at 0.062 µM. In the case of `COc1cncc(-c2ccc(F)c([C@]34CO[C@H](C)[C@H]3CSC(N)=N4)c2)c1` [Example 8, (4aS,5R,7aS)-7a-(2-fluoro-5-(5-methoxypyridin-3-yl)phenyl)-5-methyl-4a,5,7,7a-tetrahydro-4H-furo[3,4-d][1,3]thiazin-2-amine], the IC50 is 0.023 µM. With `C[C@H]1OC[C@]2(c3cc(-c4cncc(F)c4)ccc3F)N=C(N)SC[C@H]12` [Example 9, (4aS,5R,7aS)-7a-(2-Fluoro-5-(5-fluoropyridin-3-yl)phenyl)-5-methyl-4a,5,7,7a-tetrahydro-4H-furo[3,4-d][1,3]thiazin-2-amine], the IC50 worked out at 0.06 µM. Turning to `C[C@H]1OC[C@]2(c3cc(-c4ccc(F)nc4)ccc3F)N=C(N)SC[C@H]12` [Example 10, (4aS,5R,7aS)-7a-(2-Fluoro-5-(6-fluoropyridin-3-yl)phenyl)-5-methyl-4a,5,7,7a-tetrahydro-4H-furo[3,4-d][1,3]thiazin-2-amine], the concentration for half-maximal inhibition (IC50) turned out to be 0.094 µM. Turning to `COc1ccc(-c2ccc(F)c([C@]34CO[C@H](C)[C@H]3CSC(N)=N4)c2)cn1` [Example 11, (4aS,5R,7aS)-7a-(2-Fluoro-5-(6-methoxypyridin-3-yl)phenyl)-5-methyl-4a,5,7,7a-tetrahydro-4H-furo[3,4-d][1,3]thiazin-2-amine], the 50% inhibitory concentration (IC50) came to 0.839 µM. With `C[C@H]1OC[C@]2(c3cc(-c4cc(F)ccc4F)ccc3F)N=C(N)SC[C@H]12` [Example 12, (4aS,5R,7aS)-5-Methyl-7a-(2′,4,5′-trifluoro-[1,1′-biphenyl]-3-yl)-4a,5,7,7a-tetrahydro-4H-furo[3,4-d][1,3]thiazin-2-amine], the half-maximal inhibitory concentration (IC50) was determined as 0.114 µM.

Consider `C[C@H]1OC[C@]2(c3cc(-c4cncc(C#N)c4)ccc3F)N=C(N)SC[C@H]12` [Example 13, 5-(3-((4aS,5R,7aS)-2-Amino-5-methyl-4a,5,7,7a-tetrahydro-4H-furo[3,4-d][1,3]thiazin-7a-yl)-4-fluorophenyl)nicotinonitrile], for which the IC50 was 0.062 µM. With `C[C@H]1OC[C@]2(c3cc(-c4cncc(C(F)(F)F)c4)ccc3F)N=C(N)SC[C@H]12` [Example 14, (4aS,5R,7aS)-7a-(2-Fluoro-5-(5-(trifluoromethyl)pyridine-3-yl)phenyl)-5-methyl-4a,5,7,7a-tetrahydro-4H-furo[3,4-d][1,3]thiazin-2-amine], the 50% inhibitory concentration (IC50) was 0.136 µM. The result for `Cc1cncc(-c2ccc(F)c([C@]34CO[C@H](C)[C@H]3CSC(N)=N4)c2)c1` [Example 15, (4aS,5R,7aS)-7a-(2-Fluoro-5-(5-methylpyridin-3-yl)phenyl)-5-methyl-4a,5,7,7a-tetrahydro-4H-furo[3,4-d][1,3]thiazin-2-amine] reads 0.101 µM.

As to `Cc1cnc(F)c(-c2ccc(F)c([C@]34CO[C@H](C)[C@H]3CSC(N)=N4)c2)c1` [Example 16, (4aS,5R,7aS)-7a-(2-fluoro-5-(2-fluoro-5-methylpyridin-3-yl)phenyl)-5-methyl-4a,5,7,7a-tetrahydro-4H-furo[3,4-d][1,3]thiazin-2-amine], the IC50 amounted to 0.058 µM.

With `C[C@H]1OC[C@]2(c3cc(-c4ccn[nH]4)ccc3F)N=C(N)SC[C@H]12` [Example 17, (4aS,5R,7aS)-7a-(2-Fluoro-5-(1H-pyrazol-5-yl)phenyl)-5-methyl-4a,5,7,7a-tetrahydro-4H-furo[3,4-d][1,3]-thiazin-2-amine], the half-inhibitory concentration (IC50) stood at 0.977 µM. In the case of `Cc1ncccc1-c1ccc(F)c([C@]23CO[C@H](C)[C@H]2CSC(N)=N3)c1` [Example 18, (4aS,5R,7aS)-7a-(2-fluoro-5-(2-methylpyridin-3-yl)phenyl)-5-methyl-4a,5,7,7a-tetrahydro-4H-furo[3,4-d][1,3]thiazin-2-amine], the IC50 came to 0.217 µM. Regarding `CC#Cc1cncc(-c2ccc(F)c([C@]34CO[C@H](C)[C@H]3CSC(N)=N4)c2)c1` [Example 19, (4aS,5R,7aS)-7a-(2-fluoro-5-(5-(prop-1-yn-1-yl)pyridin-3-yl)phenyl)-5-methyl-4a 5,7,7a-tetrahydro-4H-furo[3,4-d][1,3]thiazin-2-amine], the half-maximal inhibitory concentration (IC50) was determined as 0.017 µM. Regarding `C[C@H]1OC[C@]2(c3cc(-c4ccnn4C)ccc3F)N=C(N)SC[C@H]12` [Example 20, (4aS,5R,7aS)-7a-(2-fluoro-5-(1-methyl-1H-pyrazol-5-yl)phenyl)-5-methyl-4a,5,7,7a-tetrahydro-4H-furo[3,4-d]thiazin-2-amine], the IC50 is above 1 µM. As to `C[C@H]1OC[C@]2(c3cc(-c4cncc(OC5CC5)c4)ccc3F)N=C(N)SC[C@H]12` [Example 21, (4aS,5R,7aS)-7a-(5-(5-cyclopropoxypyridin-3-yl)-2-fluorophenyl)-5-methyl-4a,5,7,7a-tetrahydro-4H-furo[3,4-d][1,3]thiazin-2-amine], the half-maximal inhibitory concentration (IC50) worked out at 0.127 µM. The result for `C[C@H]1OC[C@]2(c3cc(-c4cnccn4)ccc3F)N=C(N)SC[C@H]12` [Example 22, (4aS,5R,7aS)-7a-(2-fluoro-5-(pyrazin-2-yl)phenyl)-5-methyl-4a,5,7,7a-tetrahydro-4H-furo[3,4-d][1,3]thiazin-2-amine] reads 0.055 µM; that for `C[C@H]1OC[C@]2(c3cc(-c4cccnn4)ccc3F)N=C(N)SC[C@H]12` [Example 23, (4aS,5R,7aS)-7a-(2-fluoro-5-(pyridazin-3-yl)phenyl)-5-methyl-4a,5,7,7a-tetrahydro-4H-furo[3,4-d][1,3]thiazin-2-amine], 0.572 µM.

A word on the IC50: it is the concentration that inhibits the measured activity by half.
